Data as given in patent publication US4693992A, “Bacitracin-metal-polyether antibiotic complexes” (International Minerals & Chemical Corp., priority 1985, dated 1987).

Assays:
[1] = Weight gain and feed utilization in chicks, 12 days (Example 14); format: in vivo, chicken; conditions: .0066% in feed; for Gain/Feed Data / Gains/gram Data: 12 days; for Gain/Feed Index Relative to #1 / Gains Index Relative to #1: #1 = unmedicated; for Gain/Feed Index Relative to #2 / Gains Index Relative to #2: #2 = zinc bacitracin
Experimental: (§1) This example describes experimetnal testing of complexes of the present invention as feed additives for improving weight gain or feed utilization efficiency in birds. Test animals were male meat-type chickens (Hubbard strain). Fluorescent room lights were on a 16 hours light/8 hours dark schedule. The chicks were allotted to the pens on the basis of weight classes, and chicks in the even numbered pens were wing banded. Group weights were obtained at the start and individual weights at the termination of the experiment. Chicks weighing between 55 and 65 grams were selected for the test. The test compounds were blended with a basal feed ration (shown in Table 2) at the indicated concentration. Birds fed […] and feed supplemented with zinc bacitracin (Baciferm® 50, International Minerals and Chemical Corp.) were used as controls. The test was continued for 11 days, after which individual weights, pen weight and feed consumption were recorded and analyzed.
All of the bacitracin-metal-polyether antibiotic complexes tested produced statistically significant increases in gains compared to the unmedicated basal ration.
The test involving test compounds 1 and 3-14 consisted of 5 replicates of 7 chicks and those involving test compound 2 consisted of 6 replicates of 7 chicks. The tests were continued for 12 days, after which individual weight gains and feed conusumption were recorded and analyzed.

[2] = Weight gain and feed utilization efficiency in chicks, 11 days (Example 13); format: in vivo, chicken; set-up: key to Average Weight: average weight in grams; conditions: for Average Gain / Gain/Feed Ratio / Average Weight / Gain/Feed / Average Gain Index / Gain/Feed Ratio Index: .00275% in rye basal diet; for Average Gain / Gain/Feed Ratio: 11 days; for Average Gain Index / Gain/Feed Ratio Index: unmedicated = 100
Experimental: as §1

buffered rumen fluid = assay: Rumen screen, in vitro ruminal volatile fatty acid ratio (Examples 15, 16); format: cell-based, steer; conditions: Example 16; 10 ppm; Neg. Control 1.39
Experimental: Rumen fluid was removed from a fistulated steer and strained through a cheesecloth. An equal amount of pH 7 buffer was added to strained rumen fluid. After layering occurred, the lower layer was saved and again diluted with equal amount of buffer. Ten ml. portions of buffered rumen fluid were added to fermentation vessels containing 500 mg. fresh finely ground cattle ration, 1 mg cellubiose and a test compound listed in Table 1 below at the indicated concentration. The fermentation vesels were outfitted with one-way gas valves, placed in an incubator and shaken for 24 hours at 38° C. Fermentation was stopped by addition of 1 ml mercuric chloride. The liquid was decanted and analyzed for volatile fatty acids by gas chromatography. Test results are summarized in Table 1, wherein Bac=bacitracin.
The procedures of Example 15 were repeated in all essential details with the test compounds and concentrations listed in Table 1 below, as are the results of the test.

Eimeria tenella [3] = assay: Anticoccidial activity in chickens inoculated with Eimeria tenella (Example 12); format: in vivo, chicken; conditions: for Cecal Bleeding / Gain/Bird Days 0-3 / Gain/Bird Days 4-10: regrouped part of Table 2
Experimental: (§2) This example describes experimental testing of complexes of this invention for anticoccidial activity. Anticoccidial activities of test compounds were determined by administering the compounds (in feed) to chickens inoculated with active oocysts of Eimeria tenella. The test compounds, which are listed in Table 1 below, included four bacitracin-metal-polyether antibiotic complexes prepared according to the procedures described above. In addition, sodium lysocellin, regular bacitracin, sodium monensin, sodium lasolocid, and unmedicated inoculated and noninoculated controls were included for comparative purposes.
(§3) The test animals were Hubbard White Mountain male chicken (broiler strain) that were 5 days old at the beginning of the test. Each experimental compound was administered in a chick starter diet (Table 2) at a level of 80 g/ton and 120 g/ton. At 7 days of age, chicks were individually weighed, banded, and started on their respective treatments. Each treatment was replicated three times with five birds per replicate for a total of 15 birds per group. The test period was 10 days.
Seventy-two hours after the initiation of medication, birds were reweighed and orally inoculated with approximately 100,000 Eimeria tenella oocysts suspended in a 1 cc dose of saline. The following criteria were then evaluated over the next seven days:
A satisfactory challenge was obtained with Eimeria tenella.

Eimeria tenella [4] = assay: Anticoccidial activity in chickens inoculated with Eimeria tenella oocysts (Example 11); format: in vivo; conditions: for Incidence of Bloody Droppings / Morbidity: 4th-6th day; for Morbidity: birds affected/birds in group; for Mortality: 4th-7th day, birds dead/birds in group; for F/G Day 0-3 / F/G Day 4-10: feed per gain
Experimental: as §2, §3
Seventy-two hours after the initiation of medication, birds were reweighed and orally inoculated with approximately 100,000 Eimeria tenella oocysts suspended in a 1 cc dose of saline. The following criteria were then evaluated over the next seven days: […]
a. morbidity (4th-6th day) b. mortality (4th-7th day) c. incidence of bloody droppings (4th-6th day)

Substance: Bacitracin-Zinc-Lysocellin Complex [Example 6]
- Gain/Feed Data [1]: .609
- Gains/gram Data [1]: 213.8 gram
- Gain/Feed Index Relative to #1 [1]: 108.2
- Gains Index Relative to #1 [1]: 115.5
- Gain/Feed Index Relative to #2 [1]: 102.2
- Gains Index Relative to #2 [1]: 102.0
- Average Gain [2]: 219 g
- Gain/Feed Ratio [2]: 66.7
- Average Weight ([2]; Table 4): 279.4
- Gain/Feed ([2]; Table 4): 66.7
- Average Gain Index [2]: 106.6
- Gain/Feed Ratio Index [2]: 104.7
- improvement in feed utilization efficiency vs unmedicated controls ([2]; statistical comparison, Table 4): significant imporvement
- A/P Ratio (buffered rumen fluid): 1.14

Substance: Bacitracin-Manganese-Lysocellin Complex [Example 3]
- Gain/Feed Data [1]: .588
- Gains/gram Data [1]: 202.0 gram
- Gain/Feed Index Relative to #1 [1]: 104.4
- Gains Index Relative to #1 [1]: 109.1
- Gain/Feed Index Relative to #2 [1]: 98.6
- Gains Index Relative to #2 [1]: 96.4
- Cecal Bleeding (Eimeria tenella [3]; 14 g/ton Lasalocid (Approx.)): Moderate
- Gain/Bird Days 0-3 (Eimeria tenella [3]; 14 g/ton Lasalocid (Approx.)): 61.3
- Gain/Bird Days 4-10 (Eimeria tenella [3]; 14 g/ton Lasalocid (Approx.)): 154.0
- Cecal Bleeding (Eimeria tenella [3]; 36 g/ton Lasalocid (Approx.)): Slight-Moderate
- Gain/Bird Days 0-3 (Eimeria tenella [3]; 36 g/ton Lasalocid (Approx.)): 61.3
- Gain/Bird Days 4-10 (Eimeria tenella [3]; 36 g/ton Lasalocid (Approx.)): 202.4
- Incidence of Bloody Droppings (Eimeria tenella [3]; 80 g/ton in feed): Moderate
- Morbidity (Eimeria tenella [3]; 80 g/ton in feed): 10/15
- Mortality (Eimeria tenella [3]; 80 g/ton in feed): 0/15
- F/G Day 0-3 (Eimeria tenella [3]; 80 g/ton in feed): 1.81
- Gain/Bird Grams Day 0-3 (Eimeria tenella [3]; 80 g/ton in feed): 61.3 Grams
- F/G Day 4-10 (Eimeria tenella [3]; 80 g/ton in feed): 2.01
- Gain/Bird Grams Day 4-10 (Eimeria tenella [3]; 80 g/ton in feed): 154.0 Grams
- Morbidity (Eimeria tenella [3]; 120 g/ton in feed): 2/15
- Mortality (Eimeria tenella [3]; 120 g/ton in feed): 0/15
- F/G Day 0-3 (Eimeria tenella [3]; 120 g/ton in feed): 1.58
- Gain/Bird Grams Day 0-3 (Eimeria tenella [3]; 120 g/ton in feed): 61.3 Grams
- F/G Day 4-10 (Eimeria tenella [3]; 120 g/ton in feed): 1.74
- Gain/Bird Grams Day 4-10 (Eimeria tenella [3]; 120 g/ton in feed): 202.4 Grams
- anticoccidial activity (in words) (Eimeria tenella [3]; 120 grams per ton): good anticoccidial activity
- Average Gain [2]: 215 g
- Gain/Feed Ratio [2]: 64.6
- Average Weight ([2]; Table 4): 274.8
- Gain/Feed ([2]; Table 4): 64.6
- Average Gain Index [2]: 104.5
- Gain/Feed Ratio Index [2]: 101.3
- anticoccidial activity (in words) (Eimeria tenella [4]; 80 and 120 g/ton, mild E. tenella challenge): excellent anticoccidial activity
- Incidence of Bloody Droppings (Eimeria tenella [4]; 80 g/ton in feed): None
- Morbidity (Eimeria tenella [4]; 80 g/ton in feed): 1/15
- Mortality (Eimeria tenella [4]; 80 g/ton in feed): 0/15
- Gain, Grams Day 0-3 (Eimeria tenella [4]; 80 g/ton in feed): 61.7 Grams
- Gain, Grams Day 4-10 (Eimeria tenella [4]; 80 g/ton in feed): 226.6 Grams
- F/G Day 0-3 (Eimeria tenella [4]; 80 g/ton in feed): 1.62
- F/G Day 4-10 (Eimeria tenella [4]; 80 g/ton in feed): 1.59
- Incidence of Bloody Droppings (Eimeria tenella [4]; 120 g/ton in feed): None
- Morbidity (Eimeria tenella [4]; 120 g/ton in feed): 1/15
- Mortality (Eimeria tenella [4]; 120 g/ton in feed): 0/15
- Gain, Grams Day 0-3 (Eimeria tenella [4]; 120 g/ton in feed): 57.7 Grams
- Gain, Grams Day 4-10 (Eimeria tenella [4]; 120 g/ton in feed): 231.8 Grams
- F/G Day 0-3 (Eimeria tenella [4]; 120 g/ton in feed): 1.68
- F/G Day 4-10 (Eimeria tenella [4]; 120 g/ton in feed): 1.61
